Assay results: patent US20260028365A1 (BIOGEN MA INC., priority 2022, published 2026)
Like-named read-outs stand apart in the source and are kept apart here.

Columns and labels:
[1] = target: Tyk2 (Homo sapiens (Human), UniProt P29597); assay: pSTAT4 Cell Assay (MSD, NK92 cells); format: cell-based
[2] = target: JH2 domain of human Tyk2 (Homo sapiens (Human), UniProt P29597); assay: JH2 Biochemical Assay (TR-FRET probe displacement); format: binding
[3] = TR-FRET probe displacement, JH2 domain
[4] = JH2 domain of human Tyk2, TR-FRET probe displacement
[5] = TR-FRET probe displacement, JH2 domain of human Tyk2

Sequence of Tyk2 (P29597 whole entry, the tested form may be a part): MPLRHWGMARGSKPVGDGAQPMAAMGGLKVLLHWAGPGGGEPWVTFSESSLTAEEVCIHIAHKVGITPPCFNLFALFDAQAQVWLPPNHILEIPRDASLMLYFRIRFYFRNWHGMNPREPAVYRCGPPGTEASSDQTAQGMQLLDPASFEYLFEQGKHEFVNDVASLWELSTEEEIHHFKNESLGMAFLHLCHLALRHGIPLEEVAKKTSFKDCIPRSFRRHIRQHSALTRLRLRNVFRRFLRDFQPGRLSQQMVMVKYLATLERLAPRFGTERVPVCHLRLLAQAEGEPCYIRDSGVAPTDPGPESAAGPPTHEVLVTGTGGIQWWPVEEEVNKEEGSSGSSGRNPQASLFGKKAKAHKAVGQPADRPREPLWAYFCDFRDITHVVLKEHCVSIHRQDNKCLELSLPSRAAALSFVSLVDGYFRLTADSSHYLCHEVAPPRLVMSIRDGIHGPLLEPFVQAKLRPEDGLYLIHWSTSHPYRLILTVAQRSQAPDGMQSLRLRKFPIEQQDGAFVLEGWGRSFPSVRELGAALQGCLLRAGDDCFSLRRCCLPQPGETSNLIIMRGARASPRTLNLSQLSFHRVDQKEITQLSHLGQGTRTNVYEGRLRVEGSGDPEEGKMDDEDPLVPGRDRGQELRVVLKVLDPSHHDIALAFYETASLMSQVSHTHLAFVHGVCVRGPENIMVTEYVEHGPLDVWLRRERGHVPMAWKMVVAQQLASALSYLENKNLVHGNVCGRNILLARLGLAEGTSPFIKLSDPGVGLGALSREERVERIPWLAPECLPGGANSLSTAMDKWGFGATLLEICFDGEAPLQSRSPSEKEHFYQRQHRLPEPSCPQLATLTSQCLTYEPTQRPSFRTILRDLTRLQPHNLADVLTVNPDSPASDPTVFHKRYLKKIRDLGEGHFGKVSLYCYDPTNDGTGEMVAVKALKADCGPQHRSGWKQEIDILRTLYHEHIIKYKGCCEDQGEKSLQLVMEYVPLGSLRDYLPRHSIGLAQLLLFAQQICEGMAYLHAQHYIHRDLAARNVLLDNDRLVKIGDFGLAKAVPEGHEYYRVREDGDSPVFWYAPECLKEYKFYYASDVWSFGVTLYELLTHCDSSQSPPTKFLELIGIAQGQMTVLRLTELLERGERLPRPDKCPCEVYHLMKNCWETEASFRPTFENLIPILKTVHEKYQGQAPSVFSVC
Sequence of JH2 domain of human Tyk2 (P29597 575-876): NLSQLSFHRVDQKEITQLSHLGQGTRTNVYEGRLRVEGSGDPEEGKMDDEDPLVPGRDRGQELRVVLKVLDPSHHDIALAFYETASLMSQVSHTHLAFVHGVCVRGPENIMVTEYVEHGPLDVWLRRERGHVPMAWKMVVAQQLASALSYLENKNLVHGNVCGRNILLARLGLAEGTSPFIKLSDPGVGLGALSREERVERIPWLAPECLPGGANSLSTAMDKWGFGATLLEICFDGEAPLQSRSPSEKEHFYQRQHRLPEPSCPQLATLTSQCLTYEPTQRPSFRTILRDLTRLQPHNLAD

Row | Compound | IC50 [1] [µM] | IC50 [2, 3] [µM] | IC50 ([1]; MSD) [µM] | IC50 [2, 4] [µM] | IC50 [2, 5] [µM]
1 | COCCN(C)c1nnc(-c2cnc(NC(C)=O)cc2Nc2ccnc(C(C)(F)F)n2)s1 [Example 773, N-(4-((2-(1,1-difluoroethyl)pyrimidin-4-yl)amino)-5-(5-((2-methoxyethyl)(methyl)amino)-1,3,4-thiadiazol-2-yl)pyridin-2-yl)acetamide] | ≤ 0.01 | ≤ 0.01 | – | – | –
2 | CC(=O)Nc1cc(Nc2ccnc(C(C)(F)F)n2)c(-c2ccn3nccc3n2)cn1 [Example 539, N-(4-((2-(1,1-difluoroethyl)pyrimidin-4-yl)amino)-5-(pyrazolo[1,5-a]pyrimidin-5-yl)pyridin-2-yl)acetamide] | – | – | ≤ 0.01 | ≤ 0.01 | –
3 | CC(=O)Nc1cc(Nc2cc(C(C)C)nc(C(C)(F)F)n2)c(O[C@H]2C[C@@H](F)C2)cn1 [Example 411, N-(4-((2-(1,1-difluoroethyl)-6-isopropylpyrimidin-4-yl)amino)-5-((1s,3s)-3-fluorocyclobutoxy)pyridin-2-yl)acetamide] | – | – | 0.01 to 0.1 | ≤ 0.01 | –
4 | CC(=O)Nc1cc(Nc2cc(C)nc(C(C)(F)F)n2)c(OCC2CC(=O)N(C(C)C)C2)cn1 (stereo not drawn) [Example 510, N-(4-((2-(1,1-difluoroethyl)-6-methylpyrimidin-4-yl)amino)-5-((1-isopropyl-5-oxopyrrolidin-3-yl)methoxy)pyridin-2-yl)acetamide] | – | – | 0.1 to 1 | ≤ 0.01 | –
5 | CC(=O)Nc1cc(Nc2ccnc(C(C)(F)F)n2)c(-c2cnc(N3C[C@@H]4C[C@H]3CO4)cn2)cn1 [Example 870, N-(5-(5-((1S,4S)-2-oxa-5-azabicyclo[2.2.1]heptan-5-yl)pyrazin-2-yl)-4-((2-(1,1-difluoroethyl)pyrimidin-4-yl)amino)pyridin-2-yl)acetamide] | 0.01 to 0.1 | ≤ 0.01 | – | – | –
6 | CC(=O)Nc1cc(Nc2ccnc(C3CCOC3)n2)c(-c2ccn(C)n2)cn1 (stereo not drawn) [Example 556, N-(5-(1-methyl-1H-pyrazol-3-yl)-4-((2-(tetrahydrofuran-3-yl)pyrimidin-4-yl)amino)pyridin-2-yl)acetamide] | – | – | 0.01 to 0.1 | ≤ 0.01 | –
7 | COCCOc1cnc(NC(C)=O)cc1Nc1nc(C)cc(C(C)(C)F)n1 [Example 441, N-(4-((4-(2-fluoropropan-2-yl)-6-methylpyrimidin-2-yl)amino)-5-(2-methoxyethoxy)pyridin-2-yl)acetamide] | – | – | 0.1 to 1 | ≤ 0.01 | –
8 | COc1cc(-c2cnc(NC(C)=O)cc2Nc2cc(C)nc(C(C)(F)F)n2)nc(C)n1 [Example 155, N-(4-((2-(1,1-difluoroethyl)-6-methylpyrimidin-4-yl)amino)-5-(6-methoxy-2-methylpyrimidin-4-yl)pyridin-2-yl)acetamide] | – | – | 0.01 to 0.1 | – | ≤ 0.01
9 | CC(=O)Nc1cc(Nc2cc(C)nc(C(C)(F)F)n2)c(OCC2CC23CC3)cn1 (stereo not drawn) [Example 422, N-(4-((2-(1,1-difluoroethyl)-6-methylpyrimidin-4-yl)amino)-5-(spiro[2.2]pentan-1-ylmethoxy)pyridin-2-yl)acetamide] | – | – | 0.01 to 0.1 | ≤ 0.01 | –
10 | CC(=O)Nc1cc(Nc2cc(C)nc(C(C)(F)F)n2)c(OCc2cccc(F)c2)cn1 [Example 466, N-(4-((2-(1,1-difluoroethyl)-6-methylpyrimidin-4-yl)amino)-5-((3-fluorobenzyl)oxy)pyridin-2-yl)acetamide] | – | – | 0.01 to 0.1 | ≤ 0.01 | –
11 | CCOc1cnc(NC(C)=O)cc1Nc1cc(-c2cnn(CC(=O)O)c2)nc(C(C)(F)F)n1 [Example 305, 2-(4-(6-((2-acetamido-5-ethoxypyridin-4-yl)amino)-2-(1,1-difluoroethyl)pyrimidin-4-yl)-1H-pyrazol-1-yl)acetic acid] | – | – | ≥ 1 | – | ≤ 0.01
12 | CC(=O)Nc1cc(Nc2ccnc(C(C)(F)F)n2)c(-c2ccn(C)n2)cn1 [Example 202, N-(4-((2-(1,1-difluoroethyl)pyrimidin-4-yl)amino)-5-(1-methyl-1H-pyrazol-3-yl)pyridin-2-yl)acetamide] | – | – | ≤ 0.01 | – | ≤ 0.01
13 | CC(=O)Nc1cc(Nc2cc(C)nc(C(C)(F)F)n2)c(-c2cccc([C@@H]3CN(C)CCO3)n2)cn1 (single isomer, unassigned) [Example 641, (S)-N-(4′-((2-(1,1-difluoroethyl)-6-methylpyrimidin-4-yl)amino)-6-(4-methylmorpholin-2-yl)-[2,3′-bipyridin]-6′-yl)acetamide or (R)-N-(4′-((2-(1,1-difluoroethyl)-6-methylpyrimidin-4-yl)amino)-6-(4-methylmorpholin-2-yl)-[2,3′-bipyridin]-6′-yl)acetamide] | – | – | ≤ 0.01 | ≤ 0.01 | –
14 | COc1nc(C)cc(-c2cnc(NC(C)=O)cc2Nc2ccnc(C(C)(F)F)n2)n1 [Example 164, N-(4-((2-(1,1-difluoroethyl)pyrimidin-4-yl)amino)-5-(2-methoxy-6-methylpyrimidin-4-yl)pyridin-2-yl)acetamide] | – | – | 0.01 to 0.1 | – | ≤ 0.01
15 | COc1ccc(-c2cc(Nc3cc(NC(C)=O)ncc3OC)nc(C(C)(F)F)n2)cn1 [Example 391, N-(4-((2-(1,1-difluoroethyl)-6-(6-methoxypyridin-3-yl)pyrimidin-4-yl)amino)-5-methoxypyridin-2-yl)acetamide] | – | – | 0.01 to 0.1 | ≤ 0.01 | –
16 | CC(=O)Nc1cc(Nc2cc(C)nc(C(C)(F)F)n2)c(OCC2CCCN2C)cn1 (stereo not drawn) [Example 479, N-(4-((2-(1,1-difluoroethyl)-6-methylpyrimidin-4-yl)amino)-5-((1-methylpyrrolidin-2-yl)methoxy)pyridin-2-yl)acetamide] | – | – | 0.1 to 1 | ≤ 0.01 | –
17 | CC(=O)Nc1cc(Nc2ccnc(C(C)(F)F)n2)c(-c2csc(N3CC4(COC4)C3)n2)cn1 [Example 789, N-(5-(2-(2-oxa-6-azaspiro[3.3]heptan-6-yl)thiazol-4-yl)-4-((2-(1,1-difluoroethyl)pyrimidin-4-yl)amino)pyridin-2-yl)acetamide] | ≤ 0.01 | ≤ 0.01 | – | – | –
18 | CC(=O)Nc1cc(Nc2cc(C)nc(C34COC(C3)C4)n2)c(-c2ccc(C(F)F)cn2)cn1 [Example 572, N-(4′-((2-(2-oxabicyclo[2.1.1]hexan-4-yl)-6-methylpyrimidin-4-yl)amino)-5-(difluoromethyl)-[2,3′-bipyridin]-6′-yl)acetamide] | – | – | ≤ 0.01 | ≤ 0.01 | –
19 | COc1cnc(NC(C)=O)cc1Nc1cc(-c2cnn(CCN3CCOCC3)c2)nc(C(C)(F)F)n1 [Example 379, N-(4-((2-(1,1-difluoroethyl)-6-(1-(2-morpholinoethyl)-1H-pyrazol-4-yl)pyrimidin-4-yl)amino)-5-methoxypyridin-2-yl)acetamide] | – | – | 0.01 to 0.1 | ≤ 0.01 | –
20 | CC(=O)Nc1cc(Nc2cc(C)nc(C(C)(F)F)n2)c(OC2CCOC2)cn1 (stereo not drawn) [Example 477, N-(4-((2-(1,1-difluoroethyl)-6-methylpyrimidin-4-yl)amino)-5-((tetrahydrofuran-3-yl)oxy)pyridin-2-yl)acetamide] | – | – | 0.01 to 0.1 | ≤ 0.01 | –
21 | COCCN(C)c1cncc(-c2cnc(NC(C)=O)cc2Nc2ccnc(C(C)(F)F)n2)n1 [Example 275, N-(4-((2-(1,1-difluoroethyl)pyrimidin-4-yl)amino)-5-(6-((2-methoxyethyl)(methyl)amino)pyrazin-2-yl)pyridin-2-yl)acetamide] | – | – | 0.1 to 1 | – | ≤ 0.01
22 | CC(=O)Nc1cc(Nc2cc(C)nc(C(C)(F)F)n2)c(OCc2conc2C)cn1 [Example 335, N-(4-((2-(1,1-difluoroethyl)-6-methylpyrimidin-4-yl)amino)-5-((3-methylisoxazol-4-yl)methoxy)pyridin-2-yl)acetamide] | – | – | 0.1 to 1 | – | ≤ 0.01
23 | CC(=O)Nc1cc(Nc2cc(C)nc(C(C)(F)F)n2)c(OCC2CC(=O)N(C)C2)cn1 (stereo not drawn) [Example 511, N-(4-((2-(1,1-difluoroethyl)-6-methylpyrimidin-4-yl)amino)-5-((1-methyl-5-oxopyrrolidin-3-yl)methoxy)pyridin-2-yl)acetamide] | – | – | 0.1 to 1 | 0.01 to 0.1 | –
24 | CC(=O)Nc1cc(Nc2ccnc(C(C)(F)F)n2)c(-c2ccc(N(C)C)nn2)cn1 [Example 841, N-(4-((2-(1,1-difluoroethyl)pyrimidin-4-yl)amino)-5-(6-(dimethylamino)pyridazin-3-yl)pyridin-2-yl)acetamide] | ≤ 0.01 | ≤ 0.01 | – | – | –
25 | CC(=O)Nc1cc(Nc2ccnc(C(C)(F)F)n2)c(-c2coc(C)n2)cn1 [Example 581, N-(4-((2-(1,1-difluoroethyl)pyrimidin-4-yl)amino)-5-(2-methyloxazol-4-yl)pyridin-2-yl)acetamide] | – | – | 0.01 to 0.1 | ≤ 0.01 | –
26 | CC(=O)Nc1cc(Nc2cc(C)nc(C(C)(F)F)n2)c(-c2nccc(C)n2)cn1 [Example 671, N-(4-((2-(1,1-difluoroethyl)-6-methylpyrimidin-4-yl)amino)-5-(4-methylpyrimidin-2-yl)pyridin-2-yl)acetamide] | – | – | 0.01 to 0.1 | ≤ 0.01 | –
27 | COc1ccc(-c2cc(Nc3cc(NC(C)=O)ncc3OC)nc(C(C)(F)F)n2)cn1 [Example 392, N-(4-((2-(1,1-difluoroethyl)-6-(6-methoxypyridin-3-yl)pyrimidin-4-yl)amino)-5-methoxypyridin-2-yl)acetamide] | – | – | ≤ 0.01 | ≤ 0.01 | –
28 | CCc1cc(Nc2cc(NC(C)=O)ncc2-c2ccc(C#N)cn2)nc(C(C)(F)F)n1 [Example 583, N-(5-cyanO4′-((2-(1,1-difluoroethyl)-6-ethylpyrimidin-4-yl)amino)-[2,3′-bipyridin]-6′-yl)acetamide] | – | – | ≤ 0.01 | ≤ 0.01 | –
29 | CC(=O)Nc1cc(Nc2ccnc(C(C)(F)F)n2)c(-c2cncc(C#N)n2)cn1 [Example 766, N-(5-(6-cyanopyrazin-2-yl)-4-((2-(1,1-difluoroethyl)pyrimidin-4-yl)amino)pyridin-2-yl)acetamide] | 0.1 to 1 | ≤ 0.01 | – | – | –
30 | CC(=O)Nc1cc(Nc2cc(C)nc(C(C)(F)F)n2)c(OCc2cccnc2)cn1 [Example 355, N-(4-((2-(1,1-difluoroethyl)-6-methylpyrimidin-4-yl)amino)-5-(pyridin-3-ylmethoxy)pyridin-2-yl)acetamide] | – | – | 0.01 to 0.1 | – | ≤ 0.01
